Source: the NIST ThermoML archive (doi:10.1016/j.jct.2018.11.014)
± gives the expanded uncertainty stated by the source.

Details: 101.33 kPa, Crystal, Vacuum adiabatic calorimetry

SMILES | molar entropy (10 K) [J/K/mol] | molar entropy (20 K) [J/K/mol] | molar entropy (30 K) [J/K/mol] | molar entropy (40 K) [J/K/mol] | molar entropy (50 K) [J/K/mol] | molar entropy (60 K) [J/K/mol] | molar entropy (70 K) [J/K/mol] | molar entropy (80 K) [J/K/mol] | molar entropy (90 K) [J/K/mol] | molar entropy (100 K) [J/K/mol] | molar entropy (110 K) [J/K/mol] | molar entropy (120 K) [J/K/mol] | molar entropy (130 K) [J/K/mol] | molar entropy (140 K) [J/K/mol] | molar entropy (150 K) [J/K/mol] | molar entropy (160 K) [J/K/mol] | molar entropy (170 K) [J/K/mol] | molar entropy (180 K) [J/K/mol] | molar entropy (190 K) [J/K/mol] | molar entropy (200 K) [J/K/mol] | further results
O=C(CO)[C@@H](O)[C@@H](O)[C@H](O)CO [D-(-)-tagatose] | 0.24 ± 0.02 | 2.37 ± 0.04 | 6.67 ± 0.12 | 12.43 ± 0.2 | 19.05 ± 0.3 | 26.17 ± 0.4 | 33.58 ± 0.52 | 41.15 ± 0.63 | 48.83 ± 0.78 | 56.57 ± 0.89 | 64.33 ± 1 | 72.1 ± 1.1 | 79.86 ± 1.2 | 87.6 ± 1.4 | 95.33 ± 1.5 | 103.03 ± 1.6 | 110.71 ± 1.7 | 118.38 ± 1.8 | 126.03 ± 1.9 | 133.66 ± 2 | molar entropy (210 K): 141.29 ± 2.1 J/K/mol; molar entropy (220 K): 148.91 ± 2.3 J/K/mol; molar entropy (230 K): 156.53 ± 2.4 J/K/mol; molar entropy (240 K): 164.14 ± 2.5 J/K/mol; molar entropy (250 K): 171.76 ± 2.6 J/K/mol; molar entropy (260 K): 179.37 ± 2.7 J/K/mol; molar entropy (270 K): 187 ± 2.8 J/K/mol; molar entropy (280 K): 194.64 ± 3 J/K/mol; molar entropy (290 K): 202.3 ± 3.1 J/K/mol; molar entropy (298.15 K): 208.54 ± 3.2 J/K/mol; molar entropy (300 K): 209.96 ± 3.2 J/K/mol; molar entropy (310 K): 217.63 ± 3.3 J/K/mol; molar entropy (320 K): 225.31 ± 3.4 J/K/mol; molar entropy (330 K): 232.99 ± 3.5 J/K/mol
O=C(CO)[C@@H](O)[C@H](O)[C@H](O)CO [D-fructose] | 0.22 ± 0.02 | 2.49 ± 0.05 | 7.15 ± 0.12 | 13.3 ± 0.21 | 20.28 ± 0.32 | 27.72 ± 0.43 | 35.42 ± 0.54 | 43.25 ± 0.66 | 51.17 ± 0.81 | 59.14 ± 0.93 | 67.11 ± 1.1 | 75.09 ± 1.2 | 83.05 ± 1.3 | 91 ± 1.4 | 98.92 ± 1.5 | 106.81 ± 1.6 | 114.68 ± 1.8 | 122.52 ± 1.9 | 130.34 ± 2 | 138.14 ± 2.1 | molar entropy (210 K): 145.91 ± 2.2 J/K/mol; molar entropy (220 K): 153.67 ± 2.3 J/K/mol; molar entropy (230 K): 161.42 ± 2.5 J/K/mol; molar entropy (240 K): 169.16 ± 2.6 J/K/mol; molar entropy (250 K): 176.89 ± 2.7 J/K/mol; molar entropy (260 K): 184.62 ± 2.8 J/K/mol; molar entropy (270 K): 192.35 ± 2.9 J/K/mol; molar entropy (280 K): 200.07 ± 3 J/K/mol; molar entropy (290 K): 207.79 ± 3.1 J/K/mol; molar entropy (298.15 K): 214.09 ± 3.2 J/K/mol; molar entropy (300 K): 215.52 ± 3.3 J/K/mol; molar entropy (310 K): 223.26 ± 3.4 J/K/mol; molar entropy (320 K): 231.02 ± 3.5 J/K/mol; molar entropy (330 K): 238.78 ± 3.6 J/K/mol
O=C(CO)[C@H](O)[C@H](O)[C@H](O)CO [D-psicose] | 0.25 ± 0.02 | 2.96 ± 0.05 | 8.19 ± 0.14 | 14.69 ± 0.23 | 21.82 ± 0.34 | 29.28 ± 0.45 | 36.93 ± 0.57 | 44.67 ± 0.68 | 52.46 ± 0.83 | 60.26 ± 0.95 | 68.06 ± 1.1 | 75.83 ± 1.2 | 83.57 ± 1.3 | 91.28 ± 1.4 | 98.95 ± 1.5 | 106.58 ± 1.6 | 114.19 ± 1.8 | 121.76 ± 1.9 | 129.31 ± 2 | 136.83 ± 2.1 | molar entropy (210 K): 144.33 ± 2.2 J/K/mol; molar entropy (220 K): 151.81 ± 2.3 J/K/mol; molar entropy (230 K): 159.28 ± 2.4 J/K/mol; molar entropy (240 K): 166.73 ± 2.5 J/K/mol; molar entropy (250 K): 174.17 ± 2.6 J/K/mol; molar entropy (260 K): 181.61 ± 2.8 J/K/mol; molar entropy (270 K): 189.03 ± 2.9 J/K/mol; molar entropy (280 K): 196.45 ± 3 J/K/mol; molar entropy (290 K): 203.86 ± 3.1 J/K/mol; molar entropy (298.15 K): 209.9 ± 3.2 J/K/mol; molar entropy (300 K): 211.27 ± 3.2 J/K/mol; molar entropy (310 K): 218.67 ± 3.3 J/K/mol; molar entropy (320 K): 226.07 ± 3.4 J/K/mol; molar entropy (330 K): 233.48 ± 3.5 J/K/mol
